Values joined by “and” are separate entries in the source; they are usually repeats but may differ in a detail not shown here. Equal entries are not always repeated. “Also recorded” adds a separate entry of the source.

Data set [1] deals with T1, CatD (Homo sapiens, UniProt P07339). Kind of data set: CatD cellular assay (competition of PF-7802 photolabelling in live ARPE-19 cells). Type of data set: cell-based. More on the design: host or cells: ARPE-19. To be noted: for CatD potency increase in live cells: CatD enzyme IC50 versus CatD cellular IC50; for IC50: live ARPE-19 cells, PF-7802 photoprobe 100 nM, 30 min. As to the method: ARPE-19 cells were plated at a density of 1.2 × 10^6 cells per well in six-well dishes 12–24 h before probe labelling. Culture media was removed completely and replaced with 1 ml of the appropriate serum-free media (no supplements) per well. Cells were then pretreated with test compounds at the indicated concentrations for 30 min (0.5% DMSO, 37 °C, 5% CO2). […] Ultraviolet irradiation was performed without culture plate lids for efficient irradiation, and samples were slowly rotated to prevent evaporation. After ultraviolet irradiation, cells were washed twice with Dulbecco's phosphate-buffered saline (DPBS), scraped into DPBS, centrifuged and stored as pellets at −80 °C.
Cells were lysed with sonication on ice in 70 μl DPBS and protein concentrations were determined using a BCA assay (Pierce). Total protein concentrations were then normalized to 1 mg ml^−1 in 50 μl total volume before addition of 5.5 μl click chemistry mix (1 : 3 : 1 : 0.5 volume of 50 mM CuSO4 (Sigma) in H2O : 1.7 mM TBTA (Sigma) in 4:1 t-BuOH:DMSO : 50 mM TCEP (Hampton Research) in dPBS : 10 mM TAMRA-azide (Lumiprobe) in DMSO - mixed immediately before use. Reagent solutions can be premade and stored at 4 °C except for TCEP, which should be made immediately before use). […] All fluorescence gels are presented in greyscale.
Target sequence in this assay (P07339 169-412 limits assumed): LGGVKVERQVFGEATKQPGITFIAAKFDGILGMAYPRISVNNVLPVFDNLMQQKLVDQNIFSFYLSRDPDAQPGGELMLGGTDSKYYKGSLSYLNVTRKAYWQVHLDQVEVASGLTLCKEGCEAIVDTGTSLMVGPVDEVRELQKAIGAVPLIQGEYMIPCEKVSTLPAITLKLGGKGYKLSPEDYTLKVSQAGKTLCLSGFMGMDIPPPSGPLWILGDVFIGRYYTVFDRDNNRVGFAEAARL
Target sequence in this assay (P07339 65-162 limits assumed): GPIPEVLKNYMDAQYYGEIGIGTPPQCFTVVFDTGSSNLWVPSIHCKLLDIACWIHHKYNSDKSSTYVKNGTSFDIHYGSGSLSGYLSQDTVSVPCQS

The target in data set [2] is T2, BACE1 (Homo sapiens, UniProt P56817). Kind of data set: BACE1 biochemical cellular assay (sAPPβ ELISA in H4 cells overexpressing APP695). More on the design: endogenous in cells; host or cells: H4 human neuroglioma cells overexpressing human APP695. Format: cell-based. To be noted: for BACE1 potency increase in live cells: BACE1 enzyme IC50 versus BACE1 cellular IC50; for IC50: sAPPβ ELISA, H4 neuroglioma cells with human wild-type APP. Here is the method: Cellular inhibition of BACE1 was determined by measuring sAPPβ, the primary cleavage product of BACE-1, in H4 human neuroglioma cells overexpressing the wild-type human APP695. […] The colorimetric reaction was read by an EnVision plate reader (PerkinElmer).
Target sequence in this assay (P56817 46-501): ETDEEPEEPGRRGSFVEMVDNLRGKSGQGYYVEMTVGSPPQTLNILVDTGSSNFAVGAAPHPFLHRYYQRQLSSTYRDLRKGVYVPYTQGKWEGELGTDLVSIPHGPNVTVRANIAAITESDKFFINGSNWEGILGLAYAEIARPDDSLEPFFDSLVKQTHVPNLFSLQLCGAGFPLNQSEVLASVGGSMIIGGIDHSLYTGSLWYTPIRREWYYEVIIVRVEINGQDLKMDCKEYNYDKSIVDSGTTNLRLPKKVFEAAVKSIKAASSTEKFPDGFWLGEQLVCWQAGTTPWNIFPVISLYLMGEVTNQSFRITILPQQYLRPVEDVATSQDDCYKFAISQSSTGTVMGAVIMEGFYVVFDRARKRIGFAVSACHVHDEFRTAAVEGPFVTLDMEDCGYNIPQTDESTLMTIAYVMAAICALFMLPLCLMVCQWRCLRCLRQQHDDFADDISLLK

The target of data set [3] is T2, BACE1. Kind of data set: BACE1 purified enzyme fluorescence polarization assay. Type of data set: biochemical. More on the design: His (C); made in house; host or cells: CHO-K1. To be noted: purified human enzyme, fluorescence polarization, peptide substrate.
Target sequence in this assay (P56817 46-457): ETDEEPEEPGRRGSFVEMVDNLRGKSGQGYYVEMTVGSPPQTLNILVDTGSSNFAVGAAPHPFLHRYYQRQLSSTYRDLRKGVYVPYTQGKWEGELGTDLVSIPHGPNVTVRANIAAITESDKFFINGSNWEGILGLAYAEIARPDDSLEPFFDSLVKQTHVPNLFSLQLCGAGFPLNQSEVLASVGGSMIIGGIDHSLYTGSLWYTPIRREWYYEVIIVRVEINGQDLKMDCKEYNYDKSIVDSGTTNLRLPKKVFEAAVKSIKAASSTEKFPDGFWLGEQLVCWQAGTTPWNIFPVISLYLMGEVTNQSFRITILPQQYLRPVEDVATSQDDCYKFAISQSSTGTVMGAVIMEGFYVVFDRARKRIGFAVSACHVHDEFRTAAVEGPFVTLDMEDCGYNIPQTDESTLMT
Data set [4] has as its system retinal pigment epithelium (RPE). Kind of data set: Exploratory toxicology, ocular toxicity by retinal histology in rats. Format: in vivo. To be noted: 14 days; for Female ocular toxicity incidence (positive or negative animals / total evaluated) / Female ocular toxicity outcome / Male ocular toxicity incidence (positive or negative animals / total evaluated) / Male ocular toxicity outcome: rat; for Retinal finding by fluorescence microscopy: rats. As to the method: Wistar Han rats (obtained from Charles River, 125–300 g, 6–9 weeks old at study start, see Supplementary Table 7 for number of males and females) received daily oral dosing of test compounds or vehicle at the indicated concentrations for 7–29 days as indicated. The doses were prepared in a solution of 0.5% methylcellulose and 0.2% polysorbate 80, or 0.5% methylcellulose and hydroxypropyl methylcellulose acetate succinate (high fine grade) and delivered in a volume of 10 ml kg^−1 per day. Blood samples for bioanalytical analysis were collected in K2EDTA tubes via jugular vessel. Plasma was isolated after centrifugation and stored at −20 °C prior to analysis. Animals were given an additional dose the day after the end of the study (days 8, 15 or 30 for 7, 14 and 29 day studies, respectively) then killed by gas anaesthesia (isoflurane) followed by exsanguination ∼3 h after this final dose.

The next data set deals with T3, BACE2 (Homo sapiens, UniProt Q9Y5Z0).
T3 construct: purchased R&D Systems 4097-AS
T3 sequence (Q9Y5Z0 63-518): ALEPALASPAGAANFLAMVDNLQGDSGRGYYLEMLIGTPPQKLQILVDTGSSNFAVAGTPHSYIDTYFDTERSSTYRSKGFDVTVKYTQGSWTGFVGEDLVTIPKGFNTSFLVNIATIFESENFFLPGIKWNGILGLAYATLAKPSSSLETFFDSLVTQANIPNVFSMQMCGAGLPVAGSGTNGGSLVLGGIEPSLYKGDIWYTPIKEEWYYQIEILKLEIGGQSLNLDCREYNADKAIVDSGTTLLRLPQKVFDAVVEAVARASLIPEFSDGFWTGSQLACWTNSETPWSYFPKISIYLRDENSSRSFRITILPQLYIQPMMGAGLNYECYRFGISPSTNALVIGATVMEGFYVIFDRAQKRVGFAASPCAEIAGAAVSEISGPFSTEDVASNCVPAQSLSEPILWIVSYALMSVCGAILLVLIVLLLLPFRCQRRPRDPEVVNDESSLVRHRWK
The data set can be described thus: BACE2 purified enzyme fluorescence polarization assay. Format: biochemical. To be noted: purified human enzyme, fluorescence polarization. Summed up:
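Purified enzymes incubated with compound (1% DMSO, 37 °C) and 150 nM biotinylated peptide substrate in 100 mM NaOAc pH 4.5. Reaction stopped with 1.5 μM streptavidin; inhibition read by fluorescence polarization. BACE2 0.5 nM, BACE1 substrate, 1 h; CatE 1.0 nM, CatD substrate, 1.5 h.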
Background: In fluorescence polarisation assays a small probe gives low polarisation when free and higher when bound to something large.

Data set [5] addresses T1, CatD. The data set can be described thus: CatD purified enzyme fluorescence polarization assay. Format: biochemical. Further details: final maturation into a non-covalently associated heavy chain and light chain; purchased Sigma C8696; host or cells: human liver. To be noted: purified human enzyme, fluorescence polarization, substrate-based.
Target sequence in this assay (P07339 65-162 limits assumed): as the sequence (P07339 65-162 limits assumed) above
Target sequence in this assay (P07339 169-412 limits assumed): as the sequence (P07339 169-412 limits assumed) above

Broadly, the IC50 is the concentration that gives 50% inhibition. Read a high IC50 as a need for much substance. For the compound `Cc1cc([C@H]2C[C@H]3[C@@H](C)SC(N)=N[C@@]3(c3ccc(F)cc3F)CO2)on1` [PF-9283], on CatD [1], the “CatD potency difference between cell-free enzyme and cellular assays” value was about 86 fold; the “CatD potency increase in live cells” value amounted to 86 x; the IC50 is 140 nM and < 300 nM. The “BACE1 selectivity over CatD in cells” value on CatD [1] (cellular inhibition of BACE1 cleavage of APP versus inhibition of CatD labelling by PF-7802) is listed as 23 fold. At BACE1 [2], the “BACE1 potency increase in live cells” value came to 12 x and the 50% inhibitory concentration (IC50) was determined as 6 nM. This compound also registered an IC50 against BACE1 [3] of 74 nM. Also, in data set [4] (30 mg kg-1 once daily), the “Female ocular toxicity incidence (positive or negative animals / total evaluated)” value was 1/3, the “Female ocular toxicity outcome” value is “Pos”, the “Male ocular toxicity incidence (positive or negative animals / total evaluated)” value is reported as 3/3 and the “Male ocular toxicity outcome” value was “Neg (negative (neg) if there was no ocular abnormality observed)”. The “Retinal finding by fluorescence microscopy” value in data set [4] (80 mg kg-1 daily) was “accumulation of autofluorescent granules (AFG) in the RPE; also recorded: accumulated autofluorescent granules are visible”. The compound also showed an IC50 against BACE2 of 140 nM. This compound gave an IC50 on CatD [5] of 12000 nM.

As to `Cc1cc([C@H]2C[C@H]3[C@@H](CF)SC(N)=N[C@@]3(c3ccc(F)cc3F)CO2)on1` [PF-3195], the “CatD potency increase in live cells” value on CatD [1] is reported as 17 x. Further, the IC50 came to 540 nM at CatD [1]; 15 nM on BACE1 [2]; 62 nM at BACE1 [3]; 150 nM against BACE2; 9000 nM against CatD [5]. Besides, the “BACE1 potency increase in live cells” value on BACE1 [2] is on record as 4.1 x. For the same compound, the “Female ocular toxicity incidence (positive or negative animals / total evaluated)” value is recorded as 3/3 in data set [4] (15 mg kg-1 once daily), 3/3 in data set [4] (40 mg kg-1 once daily), 2/3 in data set [4] (90 mg kg-1 once daily) and 2/3 in data set [4] (200 mg kg-1 once daily). The “Female ocular toxicity outcome” value in data set [4] (15 mg kg-1 once daily) is reported as “Neg (negative (neg) if there was no ocular abnormality observed)”; in data set [4] (40 mg kg-1 once daily), “Neg (negative (neg) if there was no ocular abnormality observed)”; in data set [4] (90 mg kg-1 once daily) it was “Pos”; in data set [4] (200 mg kg-1 once daily) it was “Pos”. Besides, the “Male ocular toxicity incidence (positive or negative animals / total evaluated)” value in data set [4] (15 mg kg-1 once daily) was 3/3; in data set [4] (40 mg kg-1 once daily), 3/3; in data set [4] (90 mg kg-1 once daily) it was 1/3; in data set [4] (200 mg kg-1 once daily), 3/3. The “Male ocular toxicity outcome” value in data set [4] (15 mg kg-1 once daily) was “Neg (negative (neg) if there was no ocular abnormality observed)”; in data set [4] (40 mg kg-1 once daily), “Neg (negative (neg) if there was no ocular abnormality observed)”; in data set [4] (90 mg kg-1 once daily), “Pos”; in data set [4] (200 mg kg-1 once daily), “Pos”. Moreover, the “Retinal finding by fluorescence microscopy” value in data set [4] (15 mg kg-1 or 40 mg kg-1 daily) is listed as “no intermediate phenotype”; in data set [4] (90 mg kg-1 or 200 mg kg-1 daily) it was “accumulated autofluorescent granules”.

Values taken from paper PMC5062570 (Nature Communications, 2016).
